Article PMC5507552 (Bioconjugate chemistry, 2017)

Test system: human HEp2 cells
Settings: read-out: Dark toxicity (IC50), overnight incubation, Cell Titer Blue, from dose-response curves

## COc1ccc(C2=C3C=C(Cl)C(c4ccc(OC)cc4)=[N+]3[B-](F)(F)n3c2cc(Cl)c3-c2ccc(NC(=S)NCCOCCOCCOCCC(=O)N[C@@H](CC(C)C)C(=O)N[C@@H](C)C(=O)N[C@@H](CCCNC(=N)N)C(=O)N[C@@H](CC(C)C)C(=O)N[C@@H](CC(C)C)C(=O)N[C@H](C(N)=O)[C@@H](C)O)cc2)cc1 [Conjugate 8, BODIPY-3PEG-LARLLT-NH2]
  IC50: 98 µM
